Reference: ChEMBL document CHEMBL3232856, “Endomorphin analogues with mixed μ-opioid (MOP) receptor agonism/δ-opioid (DOP) receptor antagonism and lacking β-arrestin2 recruitment activity” (Bioorg Med Chem, 2014)
pEC50, pIC50, pKi: −log10 of the molar value. The source made the active and inactive calls. The calls are words filed in the database; no cut-off is given here. Residues, ends and D or L forms follow the SMILES beside them.

Assays:
[1] = biological target: Mu-type opioid receptor (Rattus norvegicus, UniProt P33535); test: Displacement of [3H]DAMGO from mu opioid receptor in Sprague-Dawley rat brain P2 synaptosomal membranes
[2] = biological target: Delta-type opioid receptor (Rattus norvegicus, UniProt P33533); test: Displacement of [3H]deltorphin-2 from delta opioid receptor in Sprague-Dawley rat brain P2 synaptosomal membranes
[3] = biological target: Mu-type opioid receptor (Cavia porcellus, UniProt P97266); test: Agonist activity at mu opioid receptor in guinea pig ileum assessed as inhibition of electrically-stimulated muscle contraction; assay type: tissue-based
[4] = biological target: Delta-type opioid receptor (Mus musculus, UniProt P32300); test: Agonist activity at delta opioid receptor in mouse vas deferens assessed as inhibition of electrically-stimulated muscle contraction; assay type: tissue-based
[5] = biological target: T1, Mu-type opioid receptor (Homo sapiens, UniProt P35372); test: Agonist activity at GFP-fused mu opioid receptor (unknown origin) expressed in HEK293 cells assessed as recruitment of beta-arrestin-2 after 10 mins by BRET assay; assay type: cell-based; conditions: for EC50: hek293; for pEC50: read-out: EC50
[6] = biological target: T2, Delta-type opioid receptor (Homo sapiens, UniProt P41143); test: Agonist activity at GFP-fused delta opioid receptor (unknown origin) expressed in HEK293 cells assessed as recruitment of beta-arrestin-2 after 10 mins by BRET assay; assay type: functional, cell-based
[7] = biological target: T3, Kappa-type opioid receptor (Homo sapiens, UniProt P41145); test: Agonist activity at GFP-fused kappa opioid receptor (unknown origin) expressed in HEK293 cells assessed as recruitment of beta-arrestin-2 after 10 mins by BRET assay; assay type: cell-based
[8] = biological target: T1, Mu-type opioid receptor; conditions: HEK293, at 1 µM
[9] = biological target: T1, Mu-type opioid receptor; conditions: HEK293, at 100 µM
[10] = biological target: T2, Delta-type opioid receptor; conditions: HEK293, at 0.1 to 10 µM
[11] = biological target: T2, Delta-type opioid receptor; conditions: HEK293, at 100 µM
[12] = biological target: T3, Kappa-type opioid receptor; conditions: HEK293, at 0.1 to 10 µM
[13] = biological target: T2, Delta-type opioid receptor; conditions: HEK293, at 100 µM; remark: listed apart in the source
[14] = biological target: T2, Delta-type opioid receptor; test: Agonist activity at delta opioid receptor (unknown origin) expressed in HEK293 cells assessed as inhibition of forskolin-induced cAMP accumulation after 30 mins; assay type: functional, cell-based
[15] = biological target: T1, Mu-type opioid receptor; test: Potency index, ratio of DAMGO EC50 to compound EC50 for mu opioid receptor (unknown origin) by beta-arrestin-2 recruitment assay
[16] = biological target: T1, Mu-type opioid receptor; test: Intrinsic efficacy at GFP-fused mu opioid receptor (unknown origin) expressed in HEK293 cells assessed as recruitment of beta-arrestin-2 after 10 mins by BRET assay relative to untreated control; assay type: cell-based; conditions: hek293, 10 min
[17] = biological target: T1, Mu-type opioid receptor; test: Displacement of [3H]DAMGO from mu opioid receptor (unknown origin)
[18] = biological target: T2, Delta-type opioid receptor; test: Displacement of [3H]DPDPE from delta opioid receptor (unknown origin)
[19] = Displacement of [3H]DPDPE from delta opioid receptor in guinea pig brain membranes after 1 hr; assay type: cell membranes, Cavia porcellus, Membrane

T2 sequence (P41143 whole entry, the tested form may be a part): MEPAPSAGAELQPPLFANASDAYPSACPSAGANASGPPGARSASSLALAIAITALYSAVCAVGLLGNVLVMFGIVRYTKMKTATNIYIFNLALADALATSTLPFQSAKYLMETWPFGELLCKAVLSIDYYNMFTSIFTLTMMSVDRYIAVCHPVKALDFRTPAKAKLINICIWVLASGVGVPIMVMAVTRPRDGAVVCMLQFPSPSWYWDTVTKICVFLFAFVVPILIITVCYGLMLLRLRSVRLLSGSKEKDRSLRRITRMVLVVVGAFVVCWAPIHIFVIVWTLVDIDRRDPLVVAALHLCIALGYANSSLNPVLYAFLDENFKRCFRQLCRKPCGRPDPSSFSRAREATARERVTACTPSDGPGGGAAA
Chain of Mu-type opioid receptor (Rattus norvegicus, UniProt P33535) (P33535 whole entry): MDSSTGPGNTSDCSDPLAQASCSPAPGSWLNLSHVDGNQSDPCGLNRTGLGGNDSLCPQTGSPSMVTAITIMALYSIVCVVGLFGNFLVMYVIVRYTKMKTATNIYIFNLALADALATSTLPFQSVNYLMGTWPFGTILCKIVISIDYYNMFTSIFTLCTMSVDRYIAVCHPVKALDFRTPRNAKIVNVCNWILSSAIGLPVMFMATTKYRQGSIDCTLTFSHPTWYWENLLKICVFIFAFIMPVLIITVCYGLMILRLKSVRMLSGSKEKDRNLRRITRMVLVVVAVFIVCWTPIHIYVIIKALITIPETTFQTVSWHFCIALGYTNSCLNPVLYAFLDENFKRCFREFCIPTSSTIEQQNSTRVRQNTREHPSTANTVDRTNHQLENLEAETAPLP
T1 sequence (P35372 whole entry, the tested form may be a part): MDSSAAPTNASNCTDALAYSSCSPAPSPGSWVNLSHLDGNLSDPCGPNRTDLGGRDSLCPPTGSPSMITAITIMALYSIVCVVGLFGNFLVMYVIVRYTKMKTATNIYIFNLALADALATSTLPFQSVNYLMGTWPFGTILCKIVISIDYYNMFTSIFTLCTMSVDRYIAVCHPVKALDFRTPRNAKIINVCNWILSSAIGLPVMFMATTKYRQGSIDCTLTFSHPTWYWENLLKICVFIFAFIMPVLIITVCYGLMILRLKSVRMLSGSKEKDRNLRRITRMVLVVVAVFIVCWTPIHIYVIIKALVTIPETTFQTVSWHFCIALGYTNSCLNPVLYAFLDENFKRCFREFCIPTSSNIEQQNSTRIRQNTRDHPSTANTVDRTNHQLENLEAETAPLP
Chain of Delta-type opioid receptor (Mus musculus, UniProt P32300) (P32300 whole entry, the tested form may be a part): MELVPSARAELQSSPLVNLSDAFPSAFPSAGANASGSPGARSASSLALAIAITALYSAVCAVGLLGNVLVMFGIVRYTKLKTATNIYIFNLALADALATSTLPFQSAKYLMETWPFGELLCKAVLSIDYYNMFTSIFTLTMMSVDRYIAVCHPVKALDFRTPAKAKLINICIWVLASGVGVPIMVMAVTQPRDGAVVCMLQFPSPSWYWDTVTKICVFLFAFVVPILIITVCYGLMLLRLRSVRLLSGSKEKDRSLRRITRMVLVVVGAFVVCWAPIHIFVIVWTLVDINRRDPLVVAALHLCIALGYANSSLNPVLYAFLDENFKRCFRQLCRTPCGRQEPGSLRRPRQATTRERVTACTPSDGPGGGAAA
T3 sequence (P41145 whole entry, the tested form may be a part): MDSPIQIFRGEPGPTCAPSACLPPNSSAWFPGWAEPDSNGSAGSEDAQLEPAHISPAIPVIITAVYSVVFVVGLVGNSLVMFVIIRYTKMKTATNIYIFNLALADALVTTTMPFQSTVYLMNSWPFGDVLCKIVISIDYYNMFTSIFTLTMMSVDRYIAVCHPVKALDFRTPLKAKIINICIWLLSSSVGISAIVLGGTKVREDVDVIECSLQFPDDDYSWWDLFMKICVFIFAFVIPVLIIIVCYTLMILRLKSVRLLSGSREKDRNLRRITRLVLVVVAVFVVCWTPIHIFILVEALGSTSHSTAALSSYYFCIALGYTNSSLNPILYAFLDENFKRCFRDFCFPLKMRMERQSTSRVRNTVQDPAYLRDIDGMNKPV
Chain of Delta-type opioid receptor (Rattus norvegicus, UniProt P33533) (P33533 whole entry): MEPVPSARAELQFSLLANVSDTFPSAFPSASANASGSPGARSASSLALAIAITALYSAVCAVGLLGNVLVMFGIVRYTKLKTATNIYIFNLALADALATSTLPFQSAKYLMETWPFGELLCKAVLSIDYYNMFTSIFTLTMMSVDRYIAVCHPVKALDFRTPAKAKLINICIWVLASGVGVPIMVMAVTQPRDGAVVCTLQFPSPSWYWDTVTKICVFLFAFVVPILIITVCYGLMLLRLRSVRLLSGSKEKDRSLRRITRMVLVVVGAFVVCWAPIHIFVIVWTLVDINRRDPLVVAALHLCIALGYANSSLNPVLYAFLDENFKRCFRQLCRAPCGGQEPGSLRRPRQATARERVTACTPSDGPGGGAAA
Chain of Mu-type opioid receptor (Cavia porcellus, UniProt P97266) (P97266 whole entry): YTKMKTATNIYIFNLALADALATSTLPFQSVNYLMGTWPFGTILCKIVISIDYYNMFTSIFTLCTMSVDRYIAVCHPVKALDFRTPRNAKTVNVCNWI

| SMILES | pKi [1] | pKi [2] | pIC50 [3] | pIC50 [4] | EC50 [5] | EC50 [6] | EC50 [7] | inhibition [8] | inhibition [9] | inhibition [10] | inhibition [11] | inhibition [12] | inhibition [13] | pIC50 [14] | pEC50 [5] | Ratio EC50 [15] | Ratio [16] | pKi [17] | pKi [18] | pKi [19] |
| --- | --- | --- | --- | --- | --- | --- | --- | --- | --- | --- | --- | --- | --- | --- | --- | --- | --- | --- | --- | --- |
| Cc1cccc(C)c1C[C@H](NC(=O)[C@H](Cc1ccccc1)NC(=O)[C@@H]1CCCN1C(=O)[C@@H](N)Cc1c(C)cc(O)cc1C)C(N)=O | 9.51 | 7.40 | 6.60 | < 5.00 | Not Active | Not Active | Not Active | Active | inactive | inactive | inactive | inactive | inactive | – | – | – | – | – | – | – |
| Cc1cc(O)cc(C)c1C[C@H](N)C(=O)N1CCC[C@H]1C(=O)N[C@@H](Cc1c[nH]c2ccccc12)C(N)=O (HELM PEPTIDE1{[Cc1cc(O)cc(C)c1C[C@H](N)C(=O)[*:2]].P.W.[am]}$$$$V2.0) | 9.68 | 7.18 | 7.98 | < 5.00 | – | Not Active | Not Active | Active | Active | Active | inactive | Active | inactive | > 7.00 | 8.20 | 60 | 0.6 | – | – | – |
| Cc1cc(O)cc(C)c1C[C@H](N)C(=O)N1CCC[C@H]1C(=O)N[C@@H](Cc1ccc2ccccc2c1)C(N)=O (HELM PEPTIDE1{[Cc1cc(O)cc(C)c1C[C@H](N)C(=O)[*:2]].P.[O=C([C@H](Cc1ccc2ccccc2c1)N[*:1])[*:2]].[am]}$$$$V2.0) | 7.77 | 7.17 | < 5.00 | < 5.00 | Not Active | Not Active | Not Active | Active | – | inactive | inactive | inactive | inactive | – | – | – | – | – | – | – |
| Cc1cc(O)cc(C)c1C[C@H](N)C(=O)N1CCC[C@H]1C(=O)N[C@@H](Cc1ccccc1)C(=O)N[C@@H](Cc1c[nH]c2ccccc12)C(N)=O (HELM PEPTIDE1{[Cc1cc(O)cc(C)c1C[C@H](N)C(=O)[*:2]].P.F.W.[am]}$$$$V2.0) | 9.47 | 7.60 | 6.68 | < 5.00 | Not Active | Not Active | Not Active | Active | inactive | inactive | inactive | inactive | inactive | – | – | – | – | – | – | – |
| Cc1cccc(C)c1C[C@H](NC(=O)[C@@H]1CCCN1C(=O)[C@@H](N)Cc1c(C)cc(O)cc1C)C(N)=O (HELM PEPTIDE1{[Cc1cc(O)cc(C)c1C[C@H](N)C(=O)[*:2]].P.[Cc1cccc(C)c1C[C@H](N[*:1])C(=O)[*:2]].[am]}$$$$V2.0) | 9.82 | 7.48 | 9.56 | 6.13 | Not Active | Not Active | Not Active | – | – | – | – | – | – | – | – | – | – | – | – | – |
| Cc1cc(C)c(C[C@H](NC(=O)[C@@H]2CCCN2C(=O)[C@@H](N)Cc2c(C)cc(O)cc2C)C(N)=O)c(C)c1 | 9.89 | 7.88 | 8.57 | < 5.00 | – | Not Active | Not Active | Active | – | inactive | inactive | inactive | inactive | – | 7.73 | 20 | 0.4 | – | – | – |
| Cc1cc(O)cc(C)c1C[C@H](N)C(=O)N1CCC[C@H]1C(=O)N[C@@H](Cc1cccc2ccccc12)C(N)=O (HELM PEPTIDE1{[Cc1cc(O)cc(C)c1C[C@H](N)C(=O)[*:2]].P.[O=C([C@H](Cc1cccc2ccccc12)N[*:1])[*:2]].[am]}$$$$V2.0) | 9.15 | 6.92 | 8.33 | 5.00 | Not Active | Not Active | Not Active | – | – | – | – | – | – | – | – | – | – | – | – | – |
| Cc1cc(O)cc(C)c1C[C@H](N)C(=O)N1CCC[C@H]1C(=O)N[C@@H](Cc1ccccc1)C(N)=O (HELM PEPTIDE1{[Cc1cc(O)cc(C)c1C[C@H](N)C(=O)[*:2]].P.F.[am]}$$$$V2.0) | – | – | 8.63 | 6.95 | – | – | – | – | – | – | – | – | – | – | – | – | – | 9.92 | 7.27 | – |
| Cc1cc(C)c(C[C@H](NC(=O)[C@H](Cc2ccccc2)NC(=O)[C@@H]2CCCN2C(=O)[C@@H](N)Cc2c(C)cc(O)cc2C)C(N)=O)c(C)c1 | 9.43 | 7.61 | 7.18 | < 5.00 | Not Active | Not Active | Not Active | Active | inactive | inactive | inactive | inactive | inactive | – | – | – | – | – | – | – |
| CC(C)C[C@@H](NC(=O)[C@H](Cc1ccccc1)NC(=O)CNC(=O)[C@@H](C)NC(=O)[C@@H](N)Cc1ccc(O)cc1)C(=O)O [DADLE] | – | – | 7.87 | – | – | – | – | – | – | – | – | – | – | – | – | – | – | – | – | 9.52 |
| Oc1ccc2c3c1O[C@H]1c4oc5ccccc5c4C[C@@]4(O)[C@@H](C2)N(CC2CC2)CC[C@]314 | – | – | – | – | – | – | – | – | – | – | 50% | – | – | – | – | – | – | – | – | – |
| C[C@@H](NC(=O)[C@@H](N)Cc1ccc(O)cc1)C(=O)NCC(=O)N(C)[C@@H](Cc1ccccc1)C(=O)NCCO | – | – | – | – | – | – | – | Active | – | – | – | – | – | – | – | – | – | – | – | – |
| Cc1cc(O)cc(C)c1C[C@H](N)C(=O)N1CCC[C@H]1C(=O)N[C@@H](Cc1ccccc1)C(=O)N[C@@H](Cc1cccc2ccccc12)C(N)=O (HELM PEPTIDE1{[Cc1cc(O)cc(C)c1C[C@H](N)C(=O)[*:2]].P.F.[O=C([C@H](Cc1cccc2ccccc12)N[*:1])[*:2]].[am]}$$$$V2.0) | 9.55 | 7.29 | 7.84 | < 5.00 | Not Active | Not Active | Not Active | Active | – | inactive | inactive | inactive | inactive | – | – | – | – | – | – | – |
| Cc1cc(O)cc(C)c1C[C@H](NC(=O)[C@H](Cc1ccccc1)NC(=O)[C@@H]1CCCN1C(=O)[C@@H](N)Cc1c(C)cc(O)cc1C)C(N)=O (HELM PEPTIDE1{[Cc1cc(O)cc(C)c1C[C@H](N)C(=O)[*:2]].P.F.[Cc1cc(O)cc(C)c1C[C@H](N[*:1])C(=O)[*:2]].[am]}$$$$V2.0) | 9.55 | 7.06 | 7.35 | < 5.00 | Not Active | Not Active | Not Active | Active | inactive | inactive | inactive | inactive | inactive | – | – | – | – | – | – | – |
| Cc1cc(O)cc(C)c1C[C@H](N)C(=O)N1CCC[C@H]1C(=O)N[C@@H](Cc1ccccc1)C(=O)N[C@@H](Cc1ccc2ccccc2c1)C(N)=O (HELM PEPTIDE1{[Cc1cc(O)cc(C)c1C[C@H](N)C(=O)[*:2]].P.F.[O=C([C@H](Cc1ccc2ccccc2c1)N[*:1])[*:2]].[am]}$$$$V2.0) | 9.09 | 7.63 | 7.40 | < 5.00 | Not Active | Not Active | Not Active | Active | Active | inactive | inactive | inactive | inactive | – | – | – | – | – | – | – |
| Cc1cc(C)c(C[C@H](NC(=O)[C@H](Cc2c(C)cc(C)cc2C)NC(=O)[C@@H]2CCCN2C(=O)[C@@H](N)Cc2c(C)cc(O)cc2C)C(N)=O)c(C)c1 | 9.33 | 8.79 | 8.03 | < 5.00 | Not Active | Not Active | Not Active | Active | – | inactive | Active | inactive | Active | – | – | – | – | – | – | – |
